Columns and labels:
[1] = system: average blood pressure of rats; assay: Measurement of antihypertensive effect in vivo; set-up: species or system Wistar male rats; settings: oral
Protocol: As the animals, Wistar male rats, 13- to 18-week (Japan SLC, Inc.) were used. Three days prior to administration of a test compound, a cannula (PE-50, Becton, Dickinson and Company, Japan) filled with heparin physiological saline (200 U/mL, Ajinomoto Pharmaceuticals Co., Ltd.) was inserted and placed in the common carotid artery under anesthesia with intraperitoneal administration of 60 mg/kg of pentobarbital. The other end of the cannula was subcutaneously exposed to the back of the neck. After the recovery period, the placed cannula was connected to a pressure transducer (Life Kit DTS DX-100, Nihon Kohden Corporation) to record the blood pressure waveform through an amplifier (AP-641G, Nihon Kohden Co., Ltd.) and PowerLab (ML870 PowerLab8/30 (AD Instruments Japan)). The heart rate was calculated using a heart rate measuring unit (AT-601G, Nihon Kohden Co., Ltd.). After stabilization of the blood pressure, the test compound was orally administered one time to measure the blood pressure and the heart rate over time. The test compounds were administered by appropriately adding N,N-dimethylformamide, Polyethylene Glycol 400, TWEEN 80, a 0.5% aqueous methylcellulose solution, and a 0.5 M aqueous sodium hydrogen carbonate solution, and 0.1 M hydrochloric acid therein according to the compounds and dissolving it.
Further, the administration doses in Tables represent the administration doses for oral administration, and for example, 3 means 3 mg/kg. Further, the blood pressure reduction represents a maximum change value from the value before administration in the average blood pressure, and for example, −63 indicates reduction by 63 mmHg.

[2] = target: human purified sGC (heterodimer of sGCα1 and sGCβ1) (Homo sapiens (Human), UniProt Q02108+Q02153); assay: sGC activation test (cGMP produced, HTRF); assay type: biochemical; settings: maximum activity of Preparation Example 200 compound (maximum 100 μM) taken as 100%; with SNP; read-out: EC50 (concentration giving 50% of maximum activity)
Protocol: The activity of sGC was evaluated by measuring the amount of cGMP produced by human purified sGC.
Using an sGCα 1 gene (NCBI accession No. BC028384.2) and an sGCβ1 gene (NCBI accession No. BC047620.1), an N-terminal FLAG tag-fused sGCα1 and an sGCβ1 expression baculovirus were prepared. These viruses were transfected into insect cells Sf9 (Cat. No. 11496-015, Gibco) to express a protein. From the cell lysates of the insect cells, heterodimers of the N-terminal FLAG tag-fused sGCα1 and sGCβ1 were purified with an M2 Affinity Gel (Sigma-Aldrich, Inc.) to obtain a human sGC.
An Example compound was dissolved in DMSO and diluted 20-fold with ultrapure water. 2 μL of the diluted Example compound solution (maximum concentration of 100 μM), 2 μL of a substrate solution [0.5 μM triethanolamine buffer solution, 0.03 μM dithiothreitol, 0.01 μM GTP, 0.04 μM MgCl2, and 0.03 μM sodium nitroprusside (SNP)], and 6 μL of a human enzyme suspension were added to 384-well plates (manufactured by Greiner Bio-One), and incubated at room temperature for one hour. The measurement of the amount of cGMP was carried out, using an HTRF reagent (Cisbio).
The sGC activation action of the Example compound was calculated as an Example compound concentration which gives 50% of a maximum activity (EC50), in which the maximum activity by the addition of a compound shown in Preparation Example 200, 8-(cyclohexylmethoxy)-N-[(1R)-2-hydroxy-1-phenylethyl]-2-methylimidazo[1,2-a]pyridine-3-carboxamide hydrochloride (maximum 100 μM), is taken as 100%. Further, the maximum activity of sGC with the addition of 8-(cyclohexylmethoxy)-N-[(1R)-2-hydroxy-1-phenylethyl]-2-methylimidazo[1,2-a]pyridine-3-carboxamide hydrochloride is 10-fold or more relative to the sGC activation without the addition of the compound, and it is recognized that the compound has a good sGC activating action. […] The test results of some Example compounds that are the compounds of the formula (I) of the present invention are shown below. Further, in Tables, Ex. represents Example number.

[3] = system: hind limb blood flow in rats anesthetized with pentobarbital; assay: Blood flow increasing action in vivo (hind limb blood flow, anesthetized rats); set-up: species or system Wistar male rats; settings: oral, 2 hours after administration, effective when blood flow rate 130% or more of solvent group
Protocol: The hind limb blood flow increasing action in rats anesthetized with pentobarbital was confirmed by the following test method.
Wistar male rats, 11- to 14-week (Japan SLC, Inc.) were used. An administration liquid was prepared by adding N,N-dimethyl formamide, Polyethylene Glycol 400, TWEEN 80, a 0.5% methyl cellulose aqueous solution, a 0.5 M aqueous sodium hydrogen carbonate solution, and 0.1 M hydrochloric acid to the test compound and dissolving the Example compound in an appropriate manner depending on the compound. The prepared administration liquid was orally administered, and 2 hours later, the hind limb blood flow increasing action was evaluated under anesthesia with intraperitoneally administration of 60 mg/kg of pentobarbital The hind limb blood flow was measured using a laser blood flow imaging device (PIM II Integral). By taking the average blood flow rate of a group with the administration of a solvent as 100%, the compound was evaluated to be effective when the blood flow rate was 130% or more by the administration of the compound.

Chain of human purified sGC (heterodimer of sGCα1 and sGCβ1) (Q02108 whole entry): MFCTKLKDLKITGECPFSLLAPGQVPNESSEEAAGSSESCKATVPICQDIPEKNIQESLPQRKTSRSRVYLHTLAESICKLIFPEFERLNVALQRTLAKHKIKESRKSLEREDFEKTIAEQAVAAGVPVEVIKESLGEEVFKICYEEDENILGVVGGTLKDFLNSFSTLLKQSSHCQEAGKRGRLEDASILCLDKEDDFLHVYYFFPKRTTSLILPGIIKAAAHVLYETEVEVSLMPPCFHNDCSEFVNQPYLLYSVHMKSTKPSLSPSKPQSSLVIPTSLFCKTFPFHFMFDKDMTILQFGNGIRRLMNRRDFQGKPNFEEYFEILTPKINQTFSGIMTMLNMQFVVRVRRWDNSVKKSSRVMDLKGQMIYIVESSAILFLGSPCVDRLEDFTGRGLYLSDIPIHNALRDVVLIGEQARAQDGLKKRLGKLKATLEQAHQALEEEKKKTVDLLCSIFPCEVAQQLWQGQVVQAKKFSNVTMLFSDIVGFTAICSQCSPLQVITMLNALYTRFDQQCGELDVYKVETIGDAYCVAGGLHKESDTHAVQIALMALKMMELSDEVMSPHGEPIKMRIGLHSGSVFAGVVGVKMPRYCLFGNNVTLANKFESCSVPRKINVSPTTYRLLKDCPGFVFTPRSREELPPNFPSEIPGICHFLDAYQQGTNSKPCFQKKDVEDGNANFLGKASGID
Chain of human purified sGC (heterodimer of sGCα1 and sGCβ1) (Q02153 whole entry): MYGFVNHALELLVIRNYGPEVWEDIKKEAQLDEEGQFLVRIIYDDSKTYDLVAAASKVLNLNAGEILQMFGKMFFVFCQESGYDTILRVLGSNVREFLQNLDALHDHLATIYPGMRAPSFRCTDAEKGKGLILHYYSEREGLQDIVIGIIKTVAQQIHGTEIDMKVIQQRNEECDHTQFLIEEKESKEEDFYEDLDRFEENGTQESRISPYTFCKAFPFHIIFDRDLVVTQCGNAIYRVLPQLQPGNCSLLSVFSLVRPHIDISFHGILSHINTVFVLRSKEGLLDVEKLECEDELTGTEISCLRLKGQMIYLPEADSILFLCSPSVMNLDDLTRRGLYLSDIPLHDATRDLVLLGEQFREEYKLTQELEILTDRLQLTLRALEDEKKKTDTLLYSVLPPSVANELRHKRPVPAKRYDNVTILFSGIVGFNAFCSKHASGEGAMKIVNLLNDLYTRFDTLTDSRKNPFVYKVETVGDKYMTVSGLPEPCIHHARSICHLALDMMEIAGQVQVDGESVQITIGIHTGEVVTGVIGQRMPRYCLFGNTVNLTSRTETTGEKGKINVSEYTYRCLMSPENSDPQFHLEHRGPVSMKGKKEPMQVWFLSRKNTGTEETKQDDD

| Compound | EC50 [2] [µM] | Blood pressure reduction (maximum change from value before administration in average blood pressure) ([1]; single dose 3 mg/kg) [mmHg] | hind limb blood flow increasing action ([3]; 3 mg/kg) | other results |
| --- | --- | --- | --- | --- |
| Cc1nnc([C@](C)(CO)NC(=O)c2c(C)nc3c(OCc4c(F)cccc4F)cccn23)o1 [Example 117, 8-[(2,6-difluorobenzyl)oxy]-N-[(2S)-1-hydroxy-2-(5-methyl-1,3,4-oxadiazol-2-yl)propan-2-yl]-2-methylimidazo[1,2-a]pyridine-3-carboxamide] | 5.5 |  |  | Blood pressure reduction (maximum change from value before administration in average blood pressure) ([1]; single dose 1 mg/kg): −35 mmHg; hind limb blood flow increasing action ([3]; 0.1 mg/kg): exhibited a blood flow increasing action |
| Cc1nnc([C@](C)(CO)NC(=O)c2c(C)nc3c(OCc4c(F)cccc4F)cccn23)s1 [Example 118, 8-[(2,6-difluorobenzyl)oxy]-N-[(2S)-1-hydroxy-2-(5-methyl-1,3,4-thiadiazol-2-yl)propan-2-yl]-2-methylimidazo[1,2-a]pyridine-3-carboxamide] | 1.1 | −61 |  | hind limb blood flow increasing action ([3]; 1 mg/kg): exhibited a blood flow increasing action |
| Cc1cnc([C@@]2(NC(=O)c3c(C)nc4c(OCc5c(F)cccc5F)cccn34)C[C@@H](O)[C@@H](O)C2)s1 [Example 69] | 4.6 |  | exhibited a blood flow increasing action |  |
| CCn1nnc(C(C)(CO)NC(=O)c2c(C)nc3c(OCc4c(F)cccc4F)cccn23)n1 (stereo not shown) [Example 8, 8-[(2,6-difluorobenzyl)oxy]-N-[2-(2-ethyl-2H-tetrazol-5-yl)-1-hydroxypropan-2-yl]-2-methylimidazo[1,2-a]pyridine-3-carboxamide] | 5.7 | −29 | exhibited a blood flow increasing action |  |
| Cc1nnc(C(C)(CO)NC(=O)c2c(C)nc3c(OCc4c(F)cccc4F)cccn23)s1 (stereo not shown) [Example 37] | 7.1 |  |  | hind limb blood flow increasing action ([3]; 1 mg/kg): exhibited a blood flow increasing action |
| CCn1nnc([C@H](CO)NC(=O)c2c(C)nc3c(OCc4c(F)cccc4F)cccn23)n1 [Example 81] | 16 |  |  | hind limb blood flow increasing action ([3]; 1 mg/kg): exhibited a blood flow increasing action |

More lines, main results first:

| EC50 [2] [µM] | Compound | Blood pressure reduction (maximum change from value before administration in average blood pressure) ([1]; single dose 3 mg/kg) [mmHg] | hind limb blood flow increasing action ([3]; 3 mg/kg) | other results |
| --- | --- | --- | --- | --- |
| 2.7 | Cc1nc2c(OCc3c(F)cccc3F)cccn2c1C(=O)NC(CO)(CO)c1ccc(F)cc1 [Example 54] | −56 | exhibited a blood flow increasing action |  |
| 3.4 | Cc1nc2c(OCc3c(F)cccc3F)cccn2c1C(=O)NC(CO)(CO)c1nnn(C(F)F)n1 [Example 96] |  |  | Blood pressure reduction (maximum change from value before administration in average blood pressure) ([1]; single dose 1 mg/kg): −21 mmHg; hind limb blood flow increasing action ([3]; 0.3 mg/kg): exhibited a blood flow increasing action |
| 0.72 | Cc1nc2c(OCc3c(F)cccc3F)cccn2c1C(=O)N[C@@](C)(CO)c1ccccc1 [Example 9] | −63 |  | hind limb blood flow increasing action ([3]; 0.3 mg/kg): exhibited a blood flow increasing action |
| 0.73 | Cc1nc2c(OCc3c(F)cccc3F)cccn2c1C(=O)N[C@@](C)(CO)c1nnn(C(F)F)n1 [Example 114, 8-[(2,6-difluorobenzyl)oxy]-N-{(2R)-2-[2-(difluoromethyl)-2H-tetrazol-5-yl]-1-hydroxypropan-2-yl}-2-methylimidazo[1,2-a]pyridine-3-carboxamide] |  |  | Blood pressure reduction (maximum change from value before administration in average blood pressure) ([1]; single dose 0.3 mg/kg): −35 mmHg; hind limb blood flow increasing action ([3]; 0.03 mg/kg): exhibited a blood flow increasing action |
| 2.6 | Cc1ncc(C(C)(CO)NC(=O)c2c(C)nc3c(OCc4c(F)cccc4F)cccn23)s1 (stereo not shown) [Example 2, 8-[(2,6-difluorobenzyl)oxy]-N-[1-hydroxy-2-(2-methyl-1,3-thiazol-5-yl)propan-2-yl]-2-methylimidazo[1,2-a]pyridine-3-carboxamide] | −56 | exhibited a blood flow increasing action |  |
| 1.5 | Cc1nc2c(OCc3c(F)cccc3F)cccn2c1C(=O)NC(C)(CO)c1nnc(C(F)(F)F)o1 (stereo not shown) [Example 91] |  |  | hind limb blood flow increasing action ([3]; 0.3 mg/kg): exhibited a blood flow increasing action |
| 3.8 | Cc1csc(C(C)(CO)NC(=O)c2c(C)nc3c(OCc4c(F)cccc4F)cccn23)n1 (stereo not shown) [Example 40] |  | exhibited a blood flow increasing action |  |
